This is an account of results in ChEMBL document CHEMBL1201862, “PubChem BioAssay data set” (2004).

What all share (experiment): NCI anticancer screen, dose series, 48 h
The test system of assay [1] is A549.
For assay [2], the system named is ACHN.
For assay [3], the system named is EKVX.
The subject of assay [4] is HCC 2998.
The subject of assay [5] is HCT-15.
Assay [6] has as its system KM12.
Assay [7] has as its system M19-MEL.
The test system of assay [8] is RPMI-8226.
The subject of assay [9] is SF-268.
For assay [10], the system named is SF-539.
The test system of assay [11] is SNB-19.
In assay [12] the test system is UACC-257.
Assay [13] deals with COLO 205.
For assay [14], the system named is NCI-H522.
Assay [15] has as its system SK-MEL-2.
Assay [16] deals with SK-MEL-5.
Assay [17] relates to HOP-92.
Assay [18] relates to Hs-578T.
The test system of assay [19] is MCF7.
The test system of assay [20] is MDA-N.

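Interpolation was linear, between the two tested concentrations surrounding the appropriate level; five concentrations were tested over 48 hours in 96-well plates. GI50 = concentration required for 50% inhibition of growth.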 Active and inactive are the calls of the source. No stated cut-off is given here; in the data, active = GI50 up to about 1.1 µM and inactive = higher.

Regarding `O=Cc1cn(S(=O)(=O)c2ccccc2)c2ccccc12`, the GI50 was > 100 µM (inactive) in [1]; > 100 µM (inactive) in assay [2]; > 100 µM (inactive) in assay [3]; > 100 µM (inactive) in assay [4]; 35.2 µM in [5]; 86.5 µM (inactive) in assay [6]. Also, the GI50 in assay [7] was 37.5 µM (inactive); in assay [8], 20.8 µM (inactive); in assay [9], 25.5 µM (inactive); in [10] it was 27.5 µM (inactive); in assay [11], 54.2 µM (inactive); in [12], 29.6 µM (inactive).

Turning to `O=C(c1ccccc1)c1nc2c(Cl)ccc(Cl)c2cc1C(Br)Br`, the GI50 was 3.08 µM (inactive) in [1]; 0.243 µM (active) in assay [2]; 3.19 µM (inactive) in assay [13]; 2.06 µM (inactive) in assay [4]; 0.69 µM in assay [5]; 1.14 µM (inactive) in assay [6]. For the same molecule, the GI50 in assay [7] was 1.83 µM (inactive); in [14] it was 1.54 µM (inactive); in assay [8] it was 0.284 µM (active); in assay [9], 1.41 µM (inactive); in assay [10], 0.484 µM (active); in [15] it was 2.01 µM (inactive). The GI50 in assay [16] is 1.34 µM (inactive); in assay [11], 1.54 µM (inactive); in assay [12], 0.419 µM (active).

For the molecule `Cc1ccc(C)c2c1CCc1cc3ccccc3nc1-2`, the GI50 in assay [1] was > 100 µM (inactive); in assay [2], > 100 µM (inactive); in [13] it was > 100 µM (inactive); in assay [3] it was > 100 µM (inactive); in assay [4] it was > 100 µM (inactive); in assay [5], more than 100 µM. Besides, the GI50 in [6], in [7], in assay [14], in assay [8], in assay [9] and in assay [10] was > 100 µM (inactive) throughout. The GI50 in assay [15], in assay [16], in assay [11] and in assay [12] was > 100 µM (inactive) each time.

As to `CC(C)(C)OC(=O)N(O)CCCn1cnc2c(NC3CC3)ncnc21`, the GI50 is > 100 µM (inactive) in [1]; > 100 µM (inactive) in assay [2]; > 100 µM (inactive) in [13]; > 100 µM (inactive) in assay [3]; > 100 µM (inactive) in assay [4]; more than 100 µM in [5]. The GI50 in assay [17], in assay [18], in assay [6], in assay [19], in assay [20] and in assay [14] was > 100 µM (inactive) throughout. Further, the GI50 in assay [8], in assay [9], in assay [10], in assay [15], in assay [16] and in assay [11] was > 100 µM (inactive) throughout. In addition, the GI50 in assay [12] was > 100 µM (inactive).

Regarding `Cc1c(C(=O)N2CCN(c3ccc([N+](=O)[O-])cc3)CC2)[n+]([O-])c2cc(Cl)c(Cl)cc2[n+]1[O-]`, the GI50 was 20.2 µM (inactive) in [1]; 13.5 µM (inactive) in assay [2]; 26.4 µM (inactive) in assay [13]; 20.6 µM (inactive) in assay [3]; 13.2 µM (inactive) in assay [4]; 17.1 µM in assay [5]. Also, the GI50 in assay [17] is 15.2 µM (inactive); in [18] it was 22.6 µM (inactive); in assay [6], 36.8 µM (inactive); in assay [19], 16.2 µM (inactive); in assay [20] it was 26.7 µM (inactive); in assay [14], 16.7 µM (inactive). Also, the GI50 in assay [8] is 15.6 µM (inactive); in assay [9] it was 17.3 µM (inactive); in assay [10] it was 18.6 µM (inactive); in assay [15], 31.3 µM (inactive); in [16], 10.9 µM (inactive); in assay [11], 18.3 µM (inactive). Also, in [12], the GI50 is 35.6 µM (inactive).

Regarding `CCOC(=O)/C(=C\Nc1c(C)n(C)n(-c2ccccc2)c1=O)C(=O)c1ccccc1`, the GI50 in [1] is > 100 µM (inactive); in [2] it was > 100 µM (inactive); in assay [13], > 100 µM (inactive); in [3], > 100 µM (inactive); in assay [4], > 100 µM (inactive); in assay [5] it was more than 100 µM. Further, the GI50 was > 100 µM (inactive) in assay [17]; > 100 µM (inactive) in assay [18]; 0.033 µM (active) in assay [6]; > 100 µM (inactive) in assay [19]; > 100 µM (inactive) in assay [20]; > 100 µM (inactive) in assay [14]. Moreover, the GI50 in assay [8], in assay [9], in assay [10], in assay [15], in assay [16] and in [11] was > 100 µM (inactive) in each case. For the same molecule, in assay [12], the GI50 was > 100 µM (inactive).

Consider `COC(=O)[C@H](C)[C@@H]1CC[C@](C)(CCC2=C(C)CCCC2(C)C)OO1`, for which the GI50 was > 25 µM (inactive) in assay [1]; > 25 µM (inactive) in [2]; > 25 µM (inactive) in assay [13]; > 25 µM (inactive) in assay [3]; > 25 µM (inactive) in [4]; more than 25 µM in assay [5]. For the same molecule, the GI50 was > 25 µM (inactive) in [17]; > 25 µM (inactive) in assay [18]; > 25 µM (inactive) in [6]; > 25 µM (inactive) in [19]; > 25 µM (inactive) in assay [20]; 16.1 µM (inactive) in [14]. In addition, the GI50 in [8], in assay [9], in [10], in assay [15], in assay [16] and in assay [11] was > 25 µM (inactive) each time. In addition, the GI50 in assay [12] was > 25 µM (inactive).

Consider `CC[P+](C)(Cc1ccccc1)c1ccccc1.O=C(OC(C(=O)[O-])C(OC(=O)c1ccccc1)C(=O)O)c1ccccc1` (stereo not drawn), for which the GI50 in assay [1] is > 100 µM (inactive); in assay [13], > 100 µM (inactive); in assay [3], > 100 µM (inactive); in assay [4] it was > 100 µM (inactive); in assay [5], more than 100 µM; in assay [6] it was > 100 µM (inactive). The GI50 in assay [7], in assay [8], in assay [9], in assay [10], in [15] and in assay [11] was > 100 µM (inactive) in each case. The GI50 in assay [12] was > 100 µM (inactive).

Consider `O=C(OCc1ccccc1)N(CCCCN(CCCNCc1ccccc1)C(=O)OCc1ccccc1)CCCNCc1ccccc1`, for which the GI50 was 0.782 µM (active) in [1]; 1.51 µM (inactive) in assay [2]; 0.262 µM (active) in assay [13]; 1.49 µM (inactive) in assay [3]; 0.462 µM (active) in assay [4]; 0.352 µM in assay [5]. Besides, the GI50 in [17] was 0.12 µM (active); in [18], 1.31 µM (inactive); in [6], 0.43 µM (active); in assay [19], 7.76 µM (inactive); in assay [20], 0.288 µM (active); in [14], 0.647 µM (active). The GI50 is 0.24 µM (active) in assay [8]; 1.57 µM (inactive) in assay [9]; 0.243 µM (active) in assay [10]; 1.36 µM (inactive) in assay [15]; 0.697 µM (active) in [16]; 0.431 µM (active) in [11]. Besides, the GI50 in assay [12] was 0.36 µM (active).

Consider `COc1cc(/C=C/C(C)=O)ccc1OP(=O)(O)O`, for which the GI50 in assay [1] is > 100 µM (inactive); in [2] it was > 100 µM (inactive); in assay [13] it was > 100 µM (inactive); in assay [3] it was > 100 µM (inactive); in [4], > 100 µM (inactive); in [5], more than 100 µM. Besides, the GI50 in assay [17], in [18], in assay [6], in assay [19], in assay [20] and in [14] was > 100 µM (inactive) throughout. Moreover, the GI50 in assay [8], in assay [9], in assay [10], in assay [15], in [16] and in assay [11] was > 100 µM (inactive) in each case. Further, the GI50 in assay [12] was > 100 µM (inactive).

Turning to `Cc1c(C(=O)O)n2c(S)nnc2c2ccccc12`, the GI50 was > 100 µM (inactive) in [1]; > 100 µM (inactive) in assay [2]; > 100 µM (inactive) in assay [13]; > 100 µM (inactive) in assay [3]; > 100 µM (inactive) in assay [4]; more than 100 µM in assay [5]. The GI50 in assay [17], in assay [18], in assay [6], in assay [19], in [20] and in [14] was > 100 µM (inactive) each time. Besides, the GI50 in assay [8], in [9], in [10], in assay [15], in [16] and in assay [11] was > 100 µM (inactive) in each case. Moreover, the GI50 in [12] was > 100 µM (inactive).

For the molecule `COc1ccc2c(c1)c1nn(CCN3CCCCC3)c3ccc4c(=O)n(CCN(C)C)c(=O)n2c4c13`, the GI50 in assay [1] was < 0.01 µM (active); in assay [2], < 0.01 µM (active); in assay [13], 0.148 µM (active); in [3] it was < 0.0142 µM (active); in assay [4], < 0.01 µM (active); in assay [5] it was less than 0.01 µM. Besides, the GI50 in assay [17] was 0.152 µM (active); in assay [18], < 0.0325 µM (active); in [6], < 0.01 µM (active); in assay [19], < 0.01 µM (active); in [20], < 0.0109 µM (active); in assay [14] it was < 0.01 µM (active). The GI50 in [8] was < 0.01 µM (active); in assay [9] it was < 0.01 µM (active); in [10] it was 0.0284 µM (active); in assay [15], 0.04 µM (active); in assay [16], 0.0406 µM (active); in assay [11] it was < 0.0138 µM (active). Also, the GI50 in [12] is 0.244 µM (active).
